# Data from the supplement of paper PMC10307832.
# Experiments:
# Test in all cases: relative viability (nuclei count vs DMSO), 5 days (fraction); higher = more cells survive
# COR-L 105 = test system: COR-L 105
# In short: (§1)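 Medians of duplicate plates are given as relative viability. That measure is the nuclei count in treated wells divided by the count in vehicle wells. Counts were taken on 4× images of lung cancer cell lines in 1536-well plates, 5 days after pin-tool dosing the day after seeding with one drug alone or a fixed anchor-drug dose plus five library-drug doses (not always all listed) in √10 steps.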
# LCLC-103H = test system: LCLC-103H
# In short: as §1
# LK-2 = test system: LK-2
# In short: as §1
# NCI-H1355 = test system: NCI-H1355
# In short: as §1
# NCI-H1623 = test system: NCI-H1623
# In short: as §1
# NCI-H1648 = test system: NCI-H1648
# In short: as §1
# NCI-H520 = test system: NCI-H520
# In short: as §1
# NCI-H522 = test system: NCI-H522
# In short: as §1
smiles,measurement,setting,value
O=c1cc(-c2cccc3c2Sc2ccccc2S3)oc(N2CCOCC2)c1 + Cc1cc(Nc2cc(N3CCN(C)CC3)nc(Sc3ccc(NC(=O)C4CC4)cc3)n2)n[nH]1 [Tozasertib] (partner 0.1 µM),relative viability,COR-L 105; first compound 0.08 µM,0.319
same,relative viability,COR-L 105; first compound 0.253 µM,0.357
same,relative viability,COR-L 105; first compound 0.8 µM,0.32
same,relative viability,COR-L 105; first compound 2.53 µM,0.363
same,relative viability,COR-L 105; first compound 8 µM,0.414
same,relative viability,LCLC-103H; first compound 0.08 µM,0.285
same,relative viability,LCLC-103H; first compound 0.253 µM,0.502
same,relative viability,LCLC-103H; first compound 0.8 µM,0.494
same,relative viability,LCLC-103H; first compound 2.53 µM,0.369
same,relative viability,LCLC-103H; first compound 8 µM,0.473
same,relative viability,LK-2; first compound 0.08 µM,0.184
same,relative viability,LK-2; first compound 0.253 µM,0.165
same,relative viability,LK-2; first compound 0.8 µM,0.176
same,relative viability,LK-2; first compound 2.53 µM,0.162
same,relative viability,LK-2; first compound 8 µM,0.16
same,relative viability,NCI-H1355; first compound 0.08 µM,0.521
same,relative viability,NCI-H1355; first compound 0.253 µM,0.511
same,relative viability,NCI-H1355; first compound 0.8 µM,0.483
same,relative viability,NCI-H1355; first compound 2.53 µM,0.52
same,relative viability,NCI-H1355; first compound 8 µM,0.346
same,relative viability,NCI-H1623; first compound 0.08 µM,0.445
same,relative viability,NCI-H1623; first compound 0.253 µM,0.414
same,relative viability,NCI-H1623; first compound 0.8 µM,0.393
same,relative viability,NCI-H1623; first compound 2.53 µM,0.4
same,relative viability,NCI-H1623; first compound 8 µM,0.43
same,relative viability,NCI-H1648; first compound 0.08 µM,0.492
same,relative viability,NCI-H1648; first compound 0.253 µM,0.386
same,relative viability,NCI-H1648; first compound 0.8 µM,0.426
same,relative viability,NCI-H1648; first compound 2.53 µM,0.411
same,relative viability,NCI-H1648; first compound 8 µM,0.399
same,relative viability,NCI-H520; first compound 0.08 µM,0.383
same,relative viability,NCI-H520; first compound 0.253 µM,0.375
same,relative viability,NCI-H520; first compound 0.8 µM,0.502
same,relative viability,NCI-H520; first compound 2.53 µM,0.472
same,relative viability,NCI-H520; first compound 8 µM,0.421
same,relative viability,NCI-H522; first compound 0.08 µM,0.632
same,relative viability,NCI-H522; first compound 0.253 µM,0.544
same,relative viability,NCI-H522; first compound 0.8 µM,0.512
same,relative viability,NCI-H522; first compound 2.53 µM,0.651
same,relative viability,NCI-H522; first compound 8 µM,0.562
O=c1cc(N2CCOCC2)oc2c(-c3cccc4c3sc3ccccc34)cccc12 + COc1cccc2cc(-c3nc([C@H]4CC[C@H](C(=O)O)CC4)n4ncnc(N)c34)[nH]c12 [OSI-027] (partner 0.5 µM),relative viability,COR-L 105; first compound 0.01 µM,0.668
same,relative viability,COR-L 105; first compound 0.03162 µM,0.825
same,relative viability,COR-L 105; first compound 0.1 µM,0.656
same,relative viability,COR-L 105; first compound 0.3162 µM,0.786
same,relative viability,COR-L 105; first compound 1 µM,0.553
same,relative viability,LCLC-103H; first compound 0.01 µM,0.446
same,relative viability,LCLC-103H; first compound 0.03162 µM,0.462
same,relative viability,LCLC-103H; first compound 0.1 µM,0.513
same,relative viability,LCLC-103H; first compound 0.3162 µM,0.474
same,relative viability,LCLC-103H; first compound 1 µM,0.419
same,relative viability,LK-2; first compound 0.01 µM,0.24
same,relative viability,LK-2; first compound 0.03162 µM,0.361
same,relative viability,LK-2; first compound 0.1 µM,0.181
same,relative viability,LK-2; first compound 0.3162 µM,0.219
same,relative viability,LK-2; first compound 1 µM,0.212
same,relative viability,NCI-H1355; first compound 0.01 µM,0.474
same,relative viability,NCI-H1355; first compound 0.03162 µM,0.469
same,relative viability,NCI-H1355; first compound 0.1 µM,0.265
same,relative viability,NCI-H1355; first compound 0.3162 µM,0.452
same,relative viability,NCI-H1355; first compound 1 µM,0.394
same,relative viability,NCI-H1623; first compound 0.01 µM,0.45
same,relative viability,NCI-H1623; first compound 0.03162 µM,0.477
same,relative viability,NCI-H1623; first compound 0.1 µM,0.362
same,relative viability,NCI-H1623; first compound 0.3162 µM,0.407
same,relative viability,NCI-H1623; first compound 1 µM,0.429
same,relative viability,NCI-H1648; first compound 0.01 µM,0.244
same,relative viability,NCI-H1648; first compound 0.03162 µM,0.253
same,relative viability,NCI-H1648; first compound 0.1 µM,0.239
same,relative viability,NCI-H1648; first compound 0.3162 µM,0.235
same,relative viability,NCI-H1648; first compound 1 µM,0.235
same,relative viability,NCI-H520; first compound 0.01 µM,0.284
same,relative viability,NCI-H520; first compound 0.03162 µM,0.299
same,relative viability,NCI-H520; first compound 0.1 µM,0.235
same,relative viability,NCI-H520; first compound 0.3162 µM,0.229
same,relative viability,NCI-H520; first compound 1 µM,0.323
same,relative viability,NCI-H522; first compound 0.01 µM,0.83
same,relative viability,NCI-H522; first compound 0.03162 µM,0.708
same,relative viability,NCI-H522; first compound 0.1 µM,0.496
same,relative viability,NCI-H522; first compound 0.3162 µM,0.737
same,relative viability,NCI-H522; first compound 1 µM,0.737
O=c1cc(N2CCOCC2)oc2c(-c3cccc4c3sc3ccccc34)cccc12 + Cc1cc(Nc2cc(N3CCN(C)CC3)nc(Sc3ccc(NC(=O)C4CC4)cc3)n2)n[nH]1 [Tozasertib] (partner 0.1 µM),relative viability,COR-L 105; first compound 0.01 µM,0.346
same,relative viability,COR-L 105; first compound 0.03162 µM,0.286
same,relative viability,COR-L 105; first compound 0.1 µM,0.373
same,relative viability,COR-L 105; first compound 0.3162 µM,0.303
same,relative viability,COR-L 105; first compound 1 µM,0.299
same,relative viability,LCLC-103H; first compound 0.01 µM,0.425
same,relative viability,LCLC-103H; first compound 0.03162 µM,0.538
same,relative viability,LCLC-103H; first compound 0.1 µM,0.485
same,relative viability,LCLC-103H; first compound 0.3162 µM,0.504
same,relative viability,LCLC-103H; first compound 1 µM,0.457
same,relative viability,LK-2; first compound 0.01 µM,0.164
same,relative viability,LK-2; first compound 0.03162 µM,0.161
same,relative viability,LK-2; first compound 0.1 µM,0.17
same,relative viability,LK-2; first compound 0.3162 µM,0.166
same,relative viability,LK-2; first compound 1 µM,0.17
same,relative viability,NCI-H1355; first compound 0.01 µM,0.545
same,relative viability,NCI-H1355; first compound 0.03162 µM,0.59
same,relative viability,NCI-H1355; first compound 0.1 µM,0.552
same,relative viability,NCI-H1355; first compound 0.3162 µM,0.55
same,relative viability,NCI-H1355; first compound 1 µM,0.514
same,relative viability,NCI-H1623; first compound 0.01 µM,0.472
same,relative viability,NCI-H1623; first compound 0.03162 µM,0.4
same,relative viability,NCI-H1623; first compound 0.1 µM,0.394
same,relative viability,NCI-H1623; first compound 0.3162 µM,0.411
same,relative viability,NCI-H1623; first compound 1 µM,0.343
same,relative viability,NCI-H1648; first compound 0.01 µM,0.503
same,relative viability,NCI-H1648; first compound 0.03162 µM,0.501
same,relative viability,NCI-H1648; first compound 0.1 µM,0.547
same,relative viability,NCI-H1648; first compound 0.3162 µM,0.621
same,relative viability,NCI-H1648; first compound 1 µM,0.504
same,relative viability,NCI-H520; first compound 0.01 µM,0.38
same,relative viability,NCI-H520; first compound 0.03162 µM,0.409
same,relative viability,NCI-H520; first compound 0.1 µM,0.418
same,relative viability,NCI-H520; first compound 0.3162 µM,0.438
same,relative viability,NCI-H520; first compound 1 µM,0.442
same,relative viability,NCI-H522; first compound 0.01 µM,0.548
same,relative viability,NCI-H522; first compound 0.03162 µM,0.607
same,relative viability,NCI-H522; first compound 0.1 µM,0.594
same,relative viability,NCI-H522; first compound 0.3162 µM,0.551
same,relative viability,NCI-H522; first compound 1 µM,0.61
COc1nc(C)cnc1NS(=O)(=O)c1cccnc1-c1ccc(-c2nnco2)cc1 [Zibotentan] + COc1cccc2cc(-c3nc([C@H]4CC[C@H](C(=O)O)CC4)n4ncnc(N)c34)[nH]c12 [OSI-027] (partner 0.5 µM),relative viability,COR-L 105; first compound 0.08 µM,0.822
same,relative viability,COR-L 105; first compound 0.253 µM,0.618
same,relative viability,COR-L 105; first compound 0.8 µM,0.941
same,relative viability,COR-L 105; first compound 2.53 µM,0.909
same,relative viability,LCLC-103H; first compound 0.08 µM,0.453
same,relative viability,LCLC-103H; first compound 0.253 µM,0.467
same,relative viability,LCLC-103H; first compound 0.8 µM,0.451
same,relative viability,LCLC-103H; first compound 2.53 µM,0.465
same,relative viability,LK-2; first compound 0.08 µM,0.207
same,relative viability,LK-2; first compound 0.253 µM,0.173
same,relative viability,LK-2; first compound 0.8 µM,0.244
same,relative viability,LK-2; first compound 2.53 µM,0.216
same,relative viability,NCI-H1355; first compound 0.08 µM,0.375
same,relative viability,NCI-H1355; first compound 0.253 µM,0.377
same,relative viability,NCI-H1355; first compound 0.8 µM,0.458
same,relative viability,NCI-H1355; first compound 2.53 µM,0.492
same,relative viability,NCI-H1623; first compound 0.08 µM,0.423
same,relative viability,NCI-H1623; first compound 0.253 µM,0.42
same,relative viability,NCI-H1623; first compound 0.8 µM,0.424
same,relative viability,NCI-H1623; first compound 2.53 µM,0.443
same,relative viability,NCI-H1648; first compound 0.08 µM,0.255
same,relative viability,NCI-H1648; first compound 0.253 µM,0.241
same,relative viability,NCI-H1648; first compound 0.8 µM,0.256
same,relative viability,NCI-H1648; first compound 2.53 µM,0.242
same,relative viability,NCI-H520; first compound 0.08 µM,0.295
same,relative viability,NCI-H520; first compound 0.253 µM,0.24
same,relative viability,NCI-H520; first compound 0.8 µM,0.264
same,relative viability,NCI-H520; first compound 2.53 µM,0.31
same,relative viability,NCI-H522; first compound 0.08 µM,0.704
same,relative viability,NCI-H522; first compound 0.253 µM,0.717
same,relative viability,NCI-H522; first compound 0.8 µM,0.684
same,relative viability,NCI-H522; first compound 2.53 µM,0.835
